13 compounds from patent US20260274892A1, “MACROCYCLIC BROAD SPECTRUM ANTIBIOTICS” (RQx Pharmaceuticals, Inc., priority 2017, published 2026) can be followed below.

The test system of assay [1] is Methicillin Resistant Staphylococcus aureus strain USA 200. The assay can be described thus: Minimum inhibitory concentration (MIC), CLSI broth micro-dilution, S. aureus. The class given is cell-based. The following applies: Staphylococcus aureus, MRSA / USA200; Table 6; MRSA USA 200; cation adjusted Mueller Hinton Broth + 0.002% Tween-80; 35° C., 22 hours. A digest of the protocol: (§1)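 Colonies grown 20 h at 35° C on Trypticase Soy agar (MRSA) or Luria agar (E. coli) were suspended in cation-adjusted Mueller Hinton broth with 0.002% Tween-80. Suspensions were added at OD600 0.0005 to 10-point twofold compound dilutions, then incubated 22 h at 35° C.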
(Dilution methods test growth across graded concentrations, often in twofold steps.)

In assay [2] the test system is Escherichia coli ATCC 25922. The assay can be described thus: Minimum inhibitory concentration (MIC), CLSI broth micro-dilution, E. coli. The class given is cell-based. Conditions: Escherichia coli, ATCC25922, 22 h, Table 6, cation adjusted Mueller Hinton Broth + 0.002% Tween-80, 35° C. The method, boiled down: as §1

Structures are written as SMILES.

As to `Cc1nc(-c2ccc(C(C)(C)C)cc2)ncc1C(=O)N[C@@H](CCO)C(=O)N(C)[C@@H]1C(=O)N[C@@H](C)C(=O)N[C@H](C(=O)NCC#N)Cc2ccc(OCCN)c(c2)-c2cc1ccc2OCCN` (racemic) [Compound 459, rac-(8S,11S,14S)-3,18-bis(2-aminoethoxy)-N-(cyanomethyl)-11-methyl-14-[methyl-[rac-(2S)-2-[[2-(4-tert-butylphenyl)-4-methyl-pyrimidine-5-carbonyl]amino]-4-hydroxy-butanoyl]amino]-10,13-dioxo-9,12-diazatricyclo[13.3.1.12,6]icosa-1(18),2(20),3,5,15(19),16-hexaene-8-carboxamide], the minimal inhibitory concentration (MIC) worked out at 0.083 µM in assay [1] and 0.71 µM in assay [2].

`CCCCCCc1ccc(C(=O)N2C[C@@H](CN)C[C@H]2C(=O)N(C)[C@@H]2C(=O)N[C@@H](C)C(=O)N[C@H](C(=O)NCC#N)Cc3ccc(OCCN)c(c3)-c3cc2ccc3OCCN)c(C)c1` (racemic) [Compound 461, rac-(8S,11S,14S)-3,18-bis(2-aminoethoxy)-N-(cyanomethyl)-11-methyl-14-[methyl-[rac-(2S,4R)-4-(aminomethyl)-1-(4-hexyl-2-methyl-benzoyl)pyrrolidine-2-carbonyl]amino]-10,13-dioxo-9,12-diazatricyclo[13.3.1.12,6]icosa-1(18),2(20),3,5,15(19),16-hexaene-8-carboxamide]: the results for the MIC in assay [1] and in assay [2] were 0.051 µM and 1.1 µM, respectively.

With `Cc1nc(-c2ccc(C(C)(C)C)cc2)ncc1C(=O)N[C@@H](CNC(=N)N)C(=O)N(C)[C@@H]1C(=O)N[C@@H](C)C(=O)N[C@H](C(=O)NCC#N)Cc2ccc(OCCN)c(c2)-c2cc1ccc2OCCN` (racemic) [Compound 462, rac-(8S,11S,14S)-3,18-bis(2-aminoethoxy)-N-(cyanomethyl)-11-methyl-14-[methyl-[rac-(2S)-2-[[2-(4-tert-butylphenyl)-4-methyl-pyrimidine-5-carbonyl]amino]-3-guanidino-propanoyl]amino]-10,13-dioxo-9,12-diazatricyclo[13.3.1.12,6]icosa-1(18),2(20),3,5,15(19),16-hexaene-8-carboxamide], the figures for the minimal inhibitory concentration (MIC) in assay [1] and in assay [2] were 0.027 µM and 5.4 µM, respectively.

Consider `Cc1nc(-c2ccc(C(C)(C)C)cc2)nc(C)c1C(=O)N[C@@H](C)C(=O)N[C@@H](CCN)C(=O)N(C)[C@@H]1C(=O)N[C@@H](C)C(=O)N[C@H](C(=O)NCC#N)Cc2ccc(OCCN)c(c2)-c2cc1ccc2OCCN` (racemic) [Compound 464, rac-(8S,11S,14S)-3,18-bis(2-aminoethoxy)-N-(cyanomethyl)-11-methyl-14-[methyl-[rac-(2S)-4-amino-2-[[rac-(2S)-2-[[2-(4-tert-butylphenyl)-4,6-dimethyl-pyrimidine-5-carbonyl]amino]propanoyl]amino]butanoyl]amino]-10,13-dioxo-9,12-diazatricyclo[13.3.1.12,6]icosa-1(18),2(20),3,5,15(19),16-hexaene-8-carboxamide], for which the MIC was found to be 0.063 µM in assay [1] and 4 µM in assay [2].

In the case of `Cc1nc(-c2ccc(C(C)(C)C)cc2)nc(C)c1C(=O)N[C@@H](CO)C(=O)N[C@@H](CCN)C(=O)N(C)[C@@H]1C(=O)N[C@@H](C)C(=O)N[C@H](C(=O)NCC#N)Cc2ccc(OCCN)c(c2)-c2cc1ccc2OCCN` (racemic) [Compound 465, rac-(8S,11S,14S)-3,18-bis(2-aminoethoxy)-N-(cyanomethyl)-11-methyl-14-[methyl-[rac-(2S)-4-amino-2-[[rac-(2S)-2-[[2-(4-tert-butylphenyl)-4,6-dimethyl-pyrimidine-5-carbonyl]amino]-3-hydroxy-propanoyl]amino]butanoyl]amino]-10,13-dioxo-9,12-diazatricyclo[13.3.1.12,6]icosa-1(18),2(20),3,5,15(19),16-hexaene-8-carboxamide], the results for the MIC in assay [1] and in assay [2] were 0.047 µM and 4 µM, respectively.

As for `Cc1nc(-c2ccc(C(C)(C)C)cc2)nc(C)c1C(=O)N[C@H](CO)C(=O)N[C@@H](CCN)C(=O)N(C)[C@@H]1C(=O)N[C@@H](C)C(=O)N[C@H](C(=O)NCC#N)Cc2ccc(OCCN)c(c2)-c2cc1ccc2OCCN` (racemic) [Compound 467, rac-(8S,11S,14S)-3,18-bis(2-aminoethoxy)-N-(cyanomethyl)-11-methyl-14-[methyl-[rac-(2S)-4-amino-2-[[rac-(2R)-2-[[2-(4-tert-butylphenyl)-4,6-dimethyl-pyrimidine-5-carbonyl]amino]-3-hydroxy-propanoyl]amino]butanoyl]amino]-10,13-dioxo-9,12-diazatricyclo[13.3.1.12,6]icosa-1(18),2(20),3,5,15(19),16-hexaene-8-carboxamide], the figures for the MIC in assay [1] and in assay [2] were 0.19 µM and 8 µM, respectively.

As to `CCC[C@H](NC(=O)c1c(C)nc(-c2ccc(C(C)(C)C)cc2)nc1C)C(=O)N[C@@H](CCN)C(=O)N(C)[C@@H]1C(=O)N[C@@H](C)C(=O)N[C@H](C(=O)NCC#N)Cc2ccc(OCCN)c(c2)-c2cc1ccc2OCCN` (racemic) [Compound 469, rac-(8S,11S,14S)-3,18-bis(2-aminoethoxy)-N-(cyanomethyl)-11-methyl-14-[methyl-[rac-(2S)-4-amino-2-[[rac-(2S)-2-[[2-(4-tert-butylphenyl)-4,6-dimethyl-pyrimidine-5-carbonyl]amino]pentanoyl]amino]butanoyl]amino]-10,13-dioxo-9,12-diazatricyclo[13.3.1.12,6]icosa-1(18),2(20),3,5,15(19),16-hexaene-8-carboxamide], the minimal inhibitory concentration (MIC) in assay [1] is 0.13 µM; in assay [2] it was 6 µM.

Take `Cc1nc(-c2ccc(C(C)(C)C)cc2)nc(C)c1C(=O)NCC(=O)N[C@@H](CCN)C(=O)N(C)[C@@H]1C(=O)N[C@@H](C)C(=O)N[C@H](C(=O)NCC#N)Cc2ccc(OCCN)c(c2)-c2cc1ccc2OCCN` (racemic) [Compound 470, rac-(8S,11S,14S)-3,18-bis(2-aminoethoxy)-N-(cyanomethyl)-11-methyl-14-[methyl-[rac-(2S)-4-amino-2-[[2-[[2-(4-tert-butylphenyl)-4,6-dimethyl-pyrimidine-5-carbonyl]amino]acetyl]amino]butanoyl]amino]-10,13-dioxo-9,12-diazatricyclo[13.3.1.12,6]icosa-1(18),2(20),3,5,15(19),16-hexaene-8-carboxamide]: the values for the MIC in assay [1] and in assay [2] were 0.047 µM and 4 µM, respectively.

With `CCCCCCc1ccc(C(=O)N[C@@H](CCN)C(=O)N[C@@H]2C(=O)N[C@@H](C)C(=O)N[C@H](C(=O)NCC#N)Cc3ccc(O)c(c3)-c3cc2ccc3O)c(C)c1` (racemic) [Compound 471, rac-(8S,11S,14S)-N-(cyanomethyl)-3,18-dihydroxy-11-methyl-10,13-dioxo-14-[[rac-(2S)-4-amino-2-[(4-hexyl-2-methyl-benzoyl)amino]butanoyl]amino]-9,12-diazatricyclo[13.3.1.12,6]icosa-1(18),2(20),3,5,15(19),16-hexaene-8-carboxamide], the MIC in assay [1] was found to be 0.04 µM; in assay [2], 5.1 µM.

With `Cc1nc(-c2ccc(C(C)(C)C)cc2)ncc1C(=O)N[C@@H](CCN)C(=O)N[C@@H]1C(=O)N[C@@H](C)C(=O)N[C@H](C(=O)NCC#N)Cc2ccc(OCCN)c(c2)-c2cc1ccc2OCCN` (racemic) [Compound 472, rac-(8S,11S,14S)-3,18-bis(2-aminoethoxy)-N-(cyanomethyl)-11-methyl-10,13-dioxo-14-[[rac-(2S)-4-amino-2-[[2-(4-tert-butylphenyl)-4-methyl-pyrimidine-5-carbonyl]amino]butanoyl]amino]-9,12-diazatricyclo[13.3.1.12,6]icosa-1(18),2(20),3,5,15(19),16-hexaene-8-carboxamide], the MIC in assay [1] is 0.0085 µM; in assay [2], 0.11 µM.

Take `CCCCCCc1ccc(C(=O)N[C@@H](CCN)C(=O)N(CC)[C@@H]2C(=O)N[C@@H](C)C(=O)N[C@H](C(=O)NCC#N)Cc3ccc(O)c(c3)-c3cc2ccc3O)c(C)c1` (racemic) [Compound 473, rac-(8S,11S,14S)-N-(cyanomethyl)-14-[ethyl-[rac-(2S)-4-amino-2-[(4-hexyl-2-methyl-benzoyl)amino]butanoyl]amino]-3,18-dihydroxy-11-methyl-10,13-dioxo-9,12-diazatricyclo[13.3.1.12,6]icosa-1(18),2(20),3,5,15(19),16-hexaene-8-carboxamide]: the MIC in assay [1] is 0.31 µM; in assay [2] it was 4.9 µM.

On to `CCCCCCc1ccc(C(=O)N[C@@H](CCN)C(=O)N(CCN)[C@@H]2C(=O)N[C@@H](C)C(=O)N[C@H](C(=O)NCC#N)Cc3ccc(O)c(c3)-c3cc2ccc3O)c(C)c1` (racemic) [Compound 474, rac-(8S,11S,14S)-14-[2-aminoethyl-[rac-(2S)-4-amino-2-[(4-hexyl-2-methyl-benzoyl)amino]butanoyl]amino]-N-(cyanomethyl)-3,18-dihydroxy-11-methyl-10,13-dioxo-9,12-diazatricyclo[13.3.1.12,6]icosa-1(18),2(20),3,5,15(19),16-hexaene-8-carboxamide], for which the MIC in assay [1] was 0.11 µM; in assay [2], 4.8 µM.

With `CCCCCCc1ccc(C(=O)N[C@@H](CCN)C(=O)N(CCO)[C@@H]2C(=O)N[C@@H](C)C(=O)N[C@H](C(=O)NCC#N)Cc3ccc(O)c(c3)-c3cc2ccc3O)c(C)c1` (racemic) [Compound 475, rac-(8S,11S,14S)-N-(cyanomethyl)-3,18-dihydroxy-14-[2-hydroxyethyl-[rac-(2S)-4-amino-2-[(4-hexyl-2-methyl-benzoyl)amino]butanoyl]amino]-11-methyl-10,13-dioxo-9,12-diazatricyclo[13.3.1.12,6]icosa-1(18),2(20),3,5,15(19),16-hexaene-8-carboxamide], the MIC in assay [1] is 0.6 µM; in assay [2] it was 4.8 µM.

What is called MIC is the lowest concentration found to suppress growth.
